This passage reports IC50 results from article PMC6893741, “Docosahexaenoic Acid Inhibits PTP1B Phosphatase and the Viability of MCF-7 Breast Cancer Cells” (Nutrients, 2019).

For the experiment, the target named is T1, Protein tyrosine phosphatase 1B (PTP1B) (Homo sapiens, UniProt P18031).
T1 construct: gene PTPN1; recombinant PTP1B
T1 sequence (P18031 1-435): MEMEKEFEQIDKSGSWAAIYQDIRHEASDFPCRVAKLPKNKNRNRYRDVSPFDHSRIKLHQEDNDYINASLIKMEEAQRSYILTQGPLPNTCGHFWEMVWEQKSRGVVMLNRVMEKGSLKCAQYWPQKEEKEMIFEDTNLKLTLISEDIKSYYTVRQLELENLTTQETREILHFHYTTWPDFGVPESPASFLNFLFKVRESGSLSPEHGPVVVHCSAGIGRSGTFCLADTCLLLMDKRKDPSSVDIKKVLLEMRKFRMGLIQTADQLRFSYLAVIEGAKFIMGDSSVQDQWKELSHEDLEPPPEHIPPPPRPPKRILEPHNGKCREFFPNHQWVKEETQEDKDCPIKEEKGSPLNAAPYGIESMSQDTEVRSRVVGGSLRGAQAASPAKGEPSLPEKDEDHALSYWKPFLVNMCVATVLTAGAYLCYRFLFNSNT
As to the kind of experiment: recombinant PTP1B activity assay with pNPP, absorbance at […] nm, […] min incubation. The format is biochemical.

Turning to `CC/C=C\C/C=C\C/C=C\C/C=C\C/C=C\C/C=C\CCC(=O)O` [DHA, docosahexaenoic acid], the 50% inhibitory concentration (IC50) (commonly the concentration that gives 50% inhibition) came out at 174 ± 25.5 µM.
